Assays:
[1] = Plasma stability in mouse serum; format: in vitro ADME; conditions: up to 24 h, FIG. 2C
Description: In vitro plasma stability of apratoxin A, S4 (BK), S7 (BL), S8 (BM) and S9 (BN) was done by using a modification of a published method [Chen, X.; Gardner, E. R.; Figg, W. D. J. Chromatogr. B Analyt. Technol. Biomed. Life Sci. 2008, 86, 153-158]. Ten microliters of apratoxin A, BK, BL, BM, or BN (25 μg/mL) were added to 100 μL of mouse serum, and the solution was vortex-mixed for 15 s and incubated for 0.25 min to 24 h (11 time points). At the end of each incubation period, 400 μL of ethyl acetate was added to each tube, followed by 200 μL of harmine to quench the reaction and to extract the remaining apratoxin A or S4 (BK), S7 (BL), S8 (BM) and S9 (BN). Samples were further incubated in a thermomixer at 27° C. (750 rpm, 5 min) and later centrifuged for 5 min at 1643 g. The ethyl acetate layer was collected and evaporated to dryness under nitrogen. Samples were reconstituted in 50 μL of acetonitrile. A volume of 10 μL of the reconstituted solution was injected into the HPLC-MS system.
Analysis of apratoxin A, S4 (BK), S7 (BL), S8 (BM) and S9 (BN) was done by using HPLC-MS [column, Onyx Monolithic C18 (3.0×100 mm), Phenomenex (Torrance, Calif.); solvent, water (solvent A) acetonitrile (solvent B); flow rate, 0.5 ml/min; detection by electrospray ionization-MS in positive ion mode (MRM scan)]. A stepwise gradient elution was used starting at 60% B and 40% A, then increasing to 80% B at 5 min and maintained at this condition for 5 min. Parameters were optimized before analysis by using direct syringe infusion. The retention times (tR, min; MRM ion pair) of the analytes and internal standard are as follows: harmine (2.2; 213.1→169.9), apratoxin A (4.7; 841.4→445.2), apratoxin S4 (BK) (4.1; 828.5→432.2), apratoxin S7 (BL) (4.05; 814.5→418.2), apratoxin S8 (BM) (5.2; 842.5→446.2), apratoxin S9 (BN) (4.9; 828.5→432.2). […]
(§1) Calibration curves for apratoxin A, S4 (BK), S7 (BL), S8 (BM) and S9 (BN) in the presence of mouse serum, HCT116 cell lysates, and aqueous solutions were generated by least-square linear regression analysis of the analyte peak area and internal standard peak area ratio against the nominal concentration of the standard solutions. A linear regression analysis was performed, and the concentration of remaining apratoxins at each time point was determined through interpolation for plasma, cellular, and aqueous stability experiments. The amount of remaining apratoxins with microsome incubation was determined from the peak area ratio of apratoxins at tx (3 min to 3 h) and t0. All calculations were done by using Analyst 1.4.2 (Applied Biosystems) Quantitate Mode.

Microsomal stability = format: in vitro ADME, mouse
Description: HPLC-MS was done on a 3200 QTRAP (Applied Biosystems) equipped with a Shimadzu (Kyoto, Japan) UFLC System. Mouse serum and harmine were purchased from Sigma-Aldrich. Pooled CD1 mouse liver (female) microsomes were purchased from XenoTech, LCC (Lenexa, Kans.) with protein concentrations of 0.5 mg/ml. HCT116 cell lysates were prepared with PhosphoSafe lysis buffer (Novagen). Protein concentration was determined by using the BCA Assay. Analysis was carried out similarly as previously described [Liu, Y.; Salvador, L. A.; Byeon, S.; Ying, Y.; Kwan, J. C.; Law, B. K.; Hong, J.; Luesch. H. J. Pharmacol. Exp. Ther. 2010, 335, 351-361].
The stability of apratoxin A, S4 (BK), S7 (BL), S8 (BM) and S9 (BN) in the presence of mouse microsomes was determined by using an adaptation of a published procedure [Ackley, D. C.; Rockich, K. T.; Baker, T. R. Optimization in Drug Discovery: In Vitro Methods (Series: Methods in Pharmacology and Toxicology) (eds Yan Z, Caldwell J W) 2004, pp 151-162, Springer, New Jersey]. In brief, microsomes were added to prewarmed phosphate buffer (100 mM, pH 7.4) at 37° C. Apratoxin A, BK, BL, BM, or BN (3 μL) were added to the microsomal preparation followed by NADPH cofactor solution (1.3 mM NADP, 3.3 mM glucose 6-phosphate, 0.4 U/mL glucose-6-phosphate dehydrogenase, 3.3 mM MgCl2). The reaction was allowed to proceed for 3 min to 3 h (7 time points) at 37° C. (thermomixer, 1050 rpm). The reaction was quenched by addition of ethyl acetate and subsequently spiked with harmine. The zero time point was defined by denaturing the microsomes with ethyl acetate before the addition of apratoxins. Incubation of apratoxins with microsomes alone was also performed following the same procedure to determine NADPH-dependent metabolism. The final concentration of the incubation mixture contained 0.5 mg/ml protein concentration and 1 μM apratoxins.
(§2) Analysis of apratoxin A, S4 (BK), S7 (BL), S8 (BM) and S9 (BN) was done by using HPLC-MS [column, Onyx Monolithic C18 (3.0×100 mm), Phenomenex (Torrance, Calif.); solvent, water (solvent A) acetonitrile (solvent B); flow rate, 0.5 ml/min; detection by electrospray ionization-MS in positive ion mode (MRM scan)]. A stepwise gradient elution was used starting at 60% B and 40% A, then increasing to 80% B at 5 min and maintained at this condition for 5 min. Parameters were optimized before analysis by using direct syringe infusion. The retention times (tR, min; MRM ion pair) of the analytes and internal standard are as follows: harmine (2.2; 213.1→169.9), apratoxin A (4.7; 841.4→445.2), apratoxin S4 (BK) (4.1; 828.5→432.2), apratoxin S7 (BL) (4.05; 814.5→418.2), apratoxin S8 (BM) (5.2; 842.5→446.2), apratoxin S9 (BN) (4.9; 828.5→432.2). Compound-dependent parameters used were as follows: apratoxin A, declustering potential (DP) 51, entrance potential (EP) 12, collision energy (CE) 45, collision cell exit potential (CXP) 6, collision cell entrance potential (CEP) 32; and harmine, DP 56.0, EP 4.5, CE 44.0, CXP 5, CEP 16.0. Source gas parameters used were as follows: curtain gas, 15.0; collision gas low, ionspray voltage 5500; temperature, 600.0; ion source gas 150.0; ion source gas 2 60.0.
as §1

VEGF-A secretion = test: Measurement of VEGF-A production (alphaLISA) in HCT116 culture supernatants; format: cell-based, human; conditions: determined after 12 h (n = 3)
Description: (§3) Human colon adenocarcinoma HCT116 cells were purchased from ATCC (Manassas, Va.) and cultured in Dulbecco's modified Eagle's medium (Invitrogen, Carlsbad, Calif.) supplemented with 10% fetal bovine serum (HyClone, Logan, Utah) at 37° C. humidified air and 5% CO2.
HCT116 cells (1×10^4 cells per well) were seeded in 96-well plates and one day later treated with various concentrations of apratoxins or solvent control. After 12 h of incubation, culture supernatants were collected for detection of VEGF-A by using an alphaLISA kit (PerkinElmer, Waltham, Mass.) following the manufacturer's instructions. Briefly, acceptor bead and anti-VEGF antibody were incubated first with the supernatants for 60 min, donor beads were added later and incubated for another 30 min and then VEGF-A levels detected using Envision (PerkinElmer).

HCT116 cells = test: Cell viability assay (MTT); format: cell-based, human; conditions: determined after 48 h (n = 4)
Description: as §3
HCT116 cells were seeded at a density of 1×10^4 cells per well in 96-well plates. 24 h later the cells were treated with various concentrations of apratoxins or solvent control. After 48 h of incubation, cell viability was detected using MTT according to the manufacturer's instructions (Promega, Madison, Wis.).

HCT116 xenograft = conditions: previous efficacious dose 0.25 mg/kg; cited from earlier work
[2] = Cellular stability in HCT116 cell lysate; format: in vitro ADME, human; conditions: HCT116 protein lysate 0.7 mg/mL, up to 24 h, FIG. 2D
Description: Aliquots of HCT116 cell lysates were diluted with 25 mM Tris-HCl buffer, pH 8.0, to give a final reaction volume of 100 μL and protein concentration of 0.7 mg/mL. Cell lysate solutions were incubated with 10 μL of apratoxin A, BK, BL, BM, or BN (25 μg/mL) for 0.25 min to 24 h (nine time points). Remaining apratoxin A, BK, BL, BM, or BN were extracted from the reaction solution at the end of the incubation periods with ethyl acetate using the same procedure as described for the plasma stability assay.
as §2, §1

For CC[C@H](C)[C@H]1C(=O)N2CCC[C@H]2C(=O)O[C@H](C(C)(C)C)C[C@@H](C)C[C@H](O)[C@H](C)C2=N[C@@H](CCC(=O)N[C@@H](Cc3ccc(OC)cc3)C(=O)N(C)[C@@H](C)C(=O)N1C)CS2 [apratoxin S4 (BK), Apratoxin S4], the plasma stability [1] was “excellent”, the “% remaining” value (Microsomal stability; microsomes + NADPH, 0 min) was 100% and the “% remaining” value (Microsomal stability; microsomes + NADPH, 3 min) was 39.55 ± 1.06%. The “% remaining” value (Microsomal stability; microsomes + NADPH, 5 min) was 32.20 ± 16.12%, the “% remaining” value (Microsomal stability; microsomes + NADPH, 15 min) was 10.07 ± 1.46% and the “% remaining” value (Microsomal stability; microsomes + NADPH, 30 min) was 9.58 ± 1.03%. The “% remaining” value (Microsomal stability; microsomes + NADPH, 60 min) was 10.00 ± 0.71%, the “% remaining” value (Microsomal stability; microsomes + NADPH, 120 min) was 6.02 ± 2.11% and the “% remaining” value (Microsomal stability; microsomes only, 0 min) was 100%. For the same molecule, the “% remaining” value (Microsomal stability; microsomes only, 3 min) was 87.05 ± 1.63%, the “% remaining” value (Microsomal stability; microsomes only, 5 min) was 70.80 ± 23.48% and the “% remaining” value (Microsomal stability; microsomes only, 15 min) was 87.20 ± 2.83%. The “% remaining” value (Microsomal stability; microsomes only, 30 min) was 73.85 ± 15.49%, the “% remaining” value (Microsomal stability; microsomes only, 60 min) was 87.10 ± 1.41% and the “% remaining” value (Microsomal stability; microsomes only, 120 min) was 55.25 ± 12.09%. The IC50 (VEGF-A secretion) was 0.32 nM, the IC50 (HCT116 cells) was 1.43 nM and the “in vivo activity (previous study)” value (HCT116 xenograft) was “extremely potent and active in vivo”. For the same molecule, the cellular stability [2] was “excellent”.

From US11718645B2, “Macrocyclic therapeutic agents, methods of manufacture, and methods of treatment” (University of Florida Research Foundation, Incorporated, priority 2014, dated 2023)
